{"source": "patent US20250170073A1", "about": "“SYNERGISTIC COMPOSITIONS FOR IMPROVING MINERAL BIOACCESSIBILITY” (priority 2022, published 2025)", "test": "Simulated digestion model, mineral bioaccessibility", "format": "in vitro ADME", "conditions": "in the presence of lutein", "description": "In vitro simulated gastrointestinal digestion was used for assessing mineral bioaccessibility in presence of the tested compounds.\nMineral bioaccessibility buffer (MBB) was prepared (NaCl; 6.6 mg/mL, MgSO4; 0.12 mg/mL, Glucose; 0.9 mg/mL, L-Ascorbic acid; 0.09 mg/mL, HEPES; 8.6 mg/mL at pH 6.5) with Calcium, Iron and Zinc (tricalcium phosphate; 1314.6 μg/mL, Calcium D-pantothenate; 28.5 μg/mL, Calcium Carbonate; 13.0 μg/mL, Iron Sulphate heptahydrate; 3.8 μg/mL, Iron Chloride; 12.5 μg/mL, Zinc Sulphate heptahydrate; 17.4 μg/mL, Zinc Chloride; 2.2 μg/mL) to achieve a total mineral content (Calcium; 520 μg/mL, Iron; 5.0 μg/mL, Zinc; 5.0 μg/mL), as well as soluble mineral content similar to that of infant formula. […]\nThe transit of CCP, Lutein, 2-PA and non-digestible Gos/Fos through the gastro-intestinal tract was mimicked using a three-phase dialysis model that was adapted from literature [Venema, 2020]. […] Calcium, Iron and Zinc in the dialysate were analyzed with ICP-OES spectrometry.\nThe average (n=3) total amount of Calcium, Iron and Zinc measured in the dialysate was considered bioaccessible. […]"}
{"smiles": "CC1=C[C@H](O)CC(C)(C)[C@H]1/C=C/C(C)=C/C=C/C(C)=C/C=C/C=C(C)/C=C/C=C(C)/C=C/C1=C(C)C[C@@H](O)CC1(C)C", "note": "[lutein]", "values": [{"measurement": "mineral bioaccessibility", "result": "significantly increased"}]}
